Measurements: US5859034A, “Tri-substituted phenyl compounds which have useful pharmaceutical activity” (Celltech Therapeutics, Limited, priority 1996, dated 1999)

Target: T1, recombinant PDE IVA enzyme (Homo sapiens, UniProt P27815)
T1 construct: made in house; host or cells: yeast (inducible vector)
Experiment: Isolated Recombinant Human PDE IVA Enzyme
Format: biochemical
Settings: 0.1 μM [3H]-cAMP, pH 7.5, 30° C.
Source text: 1. Isolated Recombinant Human PDE IVA Enzyme
A gene encoding human PDE IV has been cloned from human monocytes (Livi, et al., 1990, Molecular and Cellular Biology, 10, 2678). Using similar procedures we have cloned human PDE IV genes from a number of sources including eosinophils, neutrophils, lymphocytes, monocytes, brain and neuronal tissues. These genes have been transfected into yeast using an inducible vector and various recombinant proteins have been expressed which have the biochemical characteristics of PDE IV (Beavo and Reifsnyder, 1990, TIPS, 11, 150). These recombinant enzymes, particularly the human eosinophil recombinant PDE IVA, have been used as the basis of a screen for potent, selective PDE IV inhibitors.
The enzymes were purified to isoenzyme homogeneity using standard chromatographic techniques.
Phosphodiesterase activity was assayed as follows. The reaction was conducted in 150 μl of standard mixture containing (final concentrations): 50 mM 2-[[tris(hydroxymethyl)methyl]amino]-1-ethanesulphonic acid (TES) --NaOH buffer (pH 7.5), 10 mM MgCl2, 0.1 μM [^3 H]-cAMP and vehicle or various concentrations of the test compounds. […] Recovery of [^3 H]-5'AMP was determined using the [^14 C]-5'AMP and all assays were conducted in the linear range of the reaction. Results were expressed as IC50 values.

T1 sequence (P27815 whole entry): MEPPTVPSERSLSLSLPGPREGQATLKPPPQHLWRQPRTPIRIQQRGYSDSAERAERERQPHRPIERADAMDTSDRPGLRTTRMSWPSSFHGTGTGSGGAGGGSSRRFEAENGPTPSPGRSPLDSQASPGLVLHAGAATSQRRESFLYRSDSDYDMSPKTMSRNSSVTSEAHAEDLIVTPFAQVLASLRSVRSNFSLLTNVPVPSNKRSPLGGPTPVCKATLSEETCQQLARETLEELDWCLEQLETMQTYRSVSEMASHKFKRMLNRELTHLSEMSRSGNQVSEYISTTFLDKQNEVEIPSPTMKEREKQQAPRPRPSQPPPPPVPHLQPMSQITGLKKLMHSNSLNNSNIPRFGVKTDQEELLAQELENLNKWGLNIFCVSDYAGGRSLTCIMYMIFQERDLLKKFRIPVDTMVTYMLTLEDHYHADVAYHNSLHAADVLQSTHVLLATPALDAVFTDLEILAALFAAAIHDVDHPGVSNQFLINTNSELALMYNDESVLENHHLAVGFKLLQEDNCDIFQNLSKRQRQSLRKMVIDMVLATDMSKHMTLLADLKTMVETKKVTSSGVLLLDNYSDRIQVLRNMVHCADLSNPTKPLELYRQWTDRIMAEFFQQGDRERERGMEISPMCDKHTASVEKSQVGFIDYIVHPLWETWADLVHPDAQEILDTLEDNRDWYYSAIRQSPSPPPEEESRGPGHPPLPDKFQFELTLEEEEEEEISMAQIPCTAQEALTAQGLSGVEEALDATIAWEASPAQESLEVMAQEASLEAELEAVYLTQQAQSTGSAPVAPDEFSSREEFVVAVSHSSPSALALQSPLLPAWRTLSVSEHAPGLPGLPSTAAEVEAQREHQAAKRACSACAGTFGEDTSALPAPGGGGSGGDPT

Row | SMILES | IC50 [nM]
1 | CNC(=C[N+](=O)[O-])Nc1cccc([C@@H](Cc2ccncc2)c2ccc(OC)c(OC3CCCC3)c2)c1 [Example 2, (R)-N-{(EIZ)-1-{3-[1-[3-Cyclopentyloxy-4-methoxyphenyl]-2-(4-pyridinyl)ethyl]anilino}-2-nitroethenyl}-N-methylamine] | 3.3
2 | CNC(=NC#N)Nc1cccc([C@@H](Cc2ccncc2)c2ccc(OC)c(OC3CCCC3)c2)c1 [Example 4, (R)-N"-Cyano-N'-{3-[1-[3-cyclopentyloxy-4-methoxyphenyl]-2-(4-pyridinyl)ethyl]phenyl}-N-methylamine] | 0.5
